Measurements as given in paper PMC6335200 (Journal of medicinal chemistry, 2018).
pEC50, pKd: −log10 of the molar value.

Legend:
GAK = molecular target: T1, GAK (Homo sapiens, UniProt O14976); conditions: read-out: GAK affinity Kd; cited from earlier work
T1 sequence (O14976 1-1311): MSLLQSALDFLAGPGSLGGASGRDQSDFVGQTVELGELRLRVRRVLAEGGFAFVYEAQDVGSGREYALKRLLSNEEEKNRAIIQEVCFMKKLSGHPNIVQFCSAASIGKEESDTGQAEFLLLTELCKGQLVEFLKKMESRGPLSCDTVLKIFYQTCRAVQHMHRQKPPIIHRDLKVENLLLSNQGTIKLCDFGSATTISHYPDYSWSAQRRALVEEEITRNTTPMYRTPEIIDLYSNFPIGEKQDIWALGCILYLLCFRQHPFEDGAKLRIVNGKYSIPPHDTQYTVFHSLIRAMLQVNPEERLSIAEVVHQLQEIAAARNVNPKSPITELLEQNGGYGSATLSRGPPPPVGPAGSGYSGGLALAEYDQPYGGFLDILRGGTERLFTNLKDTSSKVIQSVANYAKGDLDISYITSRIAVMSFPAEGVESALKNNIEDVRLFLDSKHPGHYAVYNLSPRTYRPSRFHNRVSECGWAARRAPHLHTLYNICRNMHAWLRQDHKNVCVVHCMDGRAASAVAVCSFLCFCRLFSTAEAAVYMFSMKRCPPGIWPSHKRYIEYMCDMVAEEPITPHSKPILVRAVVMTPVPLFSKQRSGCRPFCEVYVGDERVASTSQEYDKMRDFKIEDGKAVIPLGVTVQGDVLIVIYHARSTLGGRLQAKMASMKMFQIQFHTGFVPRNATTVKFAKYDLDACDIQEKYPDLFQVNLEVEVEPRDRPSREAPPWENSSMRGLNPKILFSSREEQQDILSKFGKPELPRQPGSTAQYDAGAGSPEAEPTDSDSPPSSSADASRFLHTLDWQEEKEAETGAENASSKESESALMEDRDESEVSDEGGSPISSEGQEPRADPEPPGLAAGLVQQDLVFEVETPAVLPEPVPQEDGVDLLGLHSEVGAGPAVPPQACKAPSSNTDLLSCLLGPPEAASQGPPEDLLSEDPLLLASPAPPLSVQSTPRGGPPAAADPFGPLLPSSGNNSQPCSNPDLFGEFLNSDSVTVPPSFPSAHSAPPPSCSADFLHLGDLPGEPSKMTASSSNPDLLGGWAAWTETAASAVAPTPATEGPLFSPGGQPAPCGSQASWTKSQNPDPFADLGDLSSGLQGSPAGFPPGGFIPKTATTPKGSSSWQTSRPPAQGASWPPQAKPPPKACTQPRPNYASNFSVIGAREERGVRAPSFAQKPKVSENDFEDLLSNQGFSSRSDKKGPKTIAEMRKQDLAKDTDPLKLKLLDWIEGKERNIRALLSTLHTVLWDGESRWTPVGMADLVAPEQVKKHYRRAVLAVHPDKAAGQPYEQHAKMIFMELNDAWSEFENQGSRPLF

EBOV (Kikwit isolate) [1] = tested on: EBOV (Kikwit isolate)
CHIKV (strain AF15561) = format: cell-based, Chikungunya virus
AP2M1 phosphorylation = AP2M1 phosphorylation by Western analysis in Huh7 cells; format: cell-based, Human; conditions: calyculin A 30 minutes before lysis
EBOV (Kikwit isolate) [2] = experiment: microbe, parasite or virus in culture; conditions: Zaire ebolavirus, Huh-7, 48 h, read-out: EBOV antiviral activity EC50

Compound	pKd (GAK)	anti-EBOV activity (in words) (EBOV (Kikwit isolate) [1])	effect on CHIKV infection (in words) (CHIKV (strain AF15561))	effect on AP2M1 phosphorylation (in words) (AP2M1 phosphorylation)	pEC50 (EBOV (Kikwit isolate) [2])
COc1cc(-c2cnc3c(N4CCOCC4)snc3c2)ccc1N [Compound 4]	8.10	no anti-EBOV activity beyond cytotoxicity	–	–	–
COc1cc(-c2cnc3c(N4C[C@@H](C)O[C@@H](C)C4)snc3c2)ccc1N [Compound 12r, 4-(3-(cis-2,6-Dimethylmorpholino)isothiazolo[4,3-b]pyridin-6-yl)-2-methoxyaniline]	–	–	dose-dependent decrease in CHIKV infection	reduced AP2M1 phosphorylation	~5.70
